Source: EP0428105A2, “Use of quinolyl- and isoquinolyloxazole-2-ones for the production of a medicament for the prevention of glycoprotein enveloped virus infectivity” (MERRELL DOW PHARMACEUTICALS INC., priority 1989, dated 1991)
Where a name gives a salt, the structure may show the parent alone.

Key:
[1] = system: HIV; conditions: CD4+ cells, Fields, et al., Nature, Vol. 333, 19 May 1988, cited from earlier work
[2] = system: RF strain of HIV-1; experiment: p24 antigen expression from HIV infected T-lymphocytes (C8166 T cell line); type: cell-based; conditions: C8166 cells; for p24 Antigen: 3 h pretreatment, culture fluid after 3 days
Method: Cells (C8166 T cell line) were pretreated with test compounds at appropriate concentrations for 3 hours prior to virus (RF strain of HIV-1) absorption. Low multiplicity of infection was used and virus absorption period was 1 hour at room temperature. the cells were washed X1 in PBS and resuspended in fresh medium containing the appropriate concentrations of test compound. Cells incubated at 37°C and after 3 days culture fluid was assayed for p24 antigen as a measure of viral replication. Because these compounds were insoluble in water as their free base, they had to be taken up in DMSO and therefore a series of DMSO virus controls were needed for comparison.

[3] = system: Moloney murine leukemia virus (MoLV); experiment: in vitro XC plaque assay (SC-1 cells infected with MoLV, XC cell overlay, plaques counted); type: cell-based; conditions: compound added 2 hours before virus; for Mean No. of Foci: control 84 foci
Method: This assay was performed according to the method of Rowe et al. (Virology, 1970,42, 1136-39) as previously described by L. Hsu, et al. (J. Virological Methods, 1980, 1, 167-77) and T. L. Bowlin and M. R. Proffitt (J. Interferon Res., 1983, 3(1), 19-31). Mouse SC-1 cells (fibroblast) (10⁵) were seeded into each well of 6-well cluster plates (Costar #3506) in 4 ml Minimum Essential Medium (MEM) with 10% Fetal Calf Serum (FCS). Following an 18 hour incubation period (37°C), Moloney murine leukemia virus (MoLV) was applied at a predetermined titer to give optimal (i.e. countable) numbers of virus plaques. Compounds were added 2 hours prior to addition of the virus. Three days later the culture medium was removed, the SC-1 cell monolayers were exposed to UV irradiation (1800 ergs), and rat XC cells (10⁶) were seeded into each well in 4 ml MEM. Following an additional 3 day incubation (37°C), these cells were fixed with ethyl alcohol (95%) and stained with 0.3% crystal violet. Plaques were then counted under low magnification.

| SMILES | HIV cell surface binding [1] | viral infectivity ([1]; accumulation of virus particles at the cell surface) | p24 Antigen ([2]; 1 µg/ml, vehicle DMSO 0.01%, DMSO control 1027 pg/ml) | p24 Antigen ([2]; 10 µg/ml, vehicle DMSO 0.1%, DMSO control 2408 pg/ml) | inhibition at 1 µg/mL ([2]; Human immunodeficiency virus 1, 72 h, 1 µg/ml, vehicle DMSO 0.01%, 3 days) | inhibition at 10 µg/mL ([2]; Human immunodeficiency virus 1, 72 h, 10 µg/ml, vehicle DMSO 0.1%, 3 days) | Mean No. of Foci ([3]; 0.10 µg/ml) | Mean No. of Foci ([3]; 1 µg/ml) | inhibition at 0.1 µg/mL ([3]; Murine leukemia virus, SC-1, 0.10 µg/ml) | inhibition at 1 µg/mL ([3]; Murine leukemia virus, SC-1, 1 µg/ml) |
| --- | --- | --- | --- | --- | --- | --- | --- | --- | --- | --- |
| CC1CNCCN1S(=O)(=O)c1cccc2cnccc12 (stereo not shown) [1,5-isoquinolinesulphonyl-2-methylpiperazine dihydrochloride] | does not interfere with HIV cell surface binding | inhibition of viral infectivity | – | – | – | – | – | – | – | – |
| CCCc1[nH]c(=O)oc1-c1ccnc2ccccc12 [Test Compound, 4-propyl-5-(4-quinolinyl)-2(3H)-oxazolone] | – | – | 745 pg/mL | 710 pg/mL | 28% | 71% | 84 | 10 | 0% | 88.1% |
